Test results taken from patent US12692238B2, “Substituted pyridazinone herbicides” (FMC CORPORATION, priority 2020, dated 2026).

Assays:
Format in all cases: in vivo
[1] = tested on: barnyardgrass (Echinochloa crus-galli); assay: Test A preemergence, barnyardgrass; conditions: 10 days
Method in brief: (§1)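 Seeds sown in loam–sand blend received a directed soil spray preemergence; postemergence plants at 2 to 10 cm, one- to two-leaf stage, were sprayed. Compounds were formulated in non-phytotoxic solvent with surfactant. After 10 days in greenhouse, injury was rated visually versus untreated controls, 0 (no effect) to 100 (complete control).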

[2] = tested on: ragweed (common ragweed, Ambrosia artemisiifolia); assay: Test A preemergence, ragweed; conditions: Ambrosia artemisiifolia, pre-emergence, 240 h, 0 to 100 scale, 10 days, read-out: Plant response rating, Ragweed; for pest or weed control at 31 g/ha: 31 g ai/ha; for pest or weed control at 125 g/ha: 125 g ai/ha
Method in brief: as §1

[3] = tested on: ryegrass, Italian (Italian ryegrass, Lolium multiflorum); assay: Test A preemergence, ryegrass, Italian; conditions: Lolium multiflorum, pre-emergence, 240 h, 0 to 100 scale, 10 days, read-out: Plant response rating, Ryegrass, Italian; for pest or weed control at 31 g/ha: 31 g ai/ha; for pest or weed control at 125 g/ha: 125 g ai/ha
Method in brief: as §1

[4] = tested on: barnyardgrass (Echinochloa crus-galli); assay: Test A postemergence, barnyardgrass; conditions: Postemergence, 0 to 100 scale, 10 days
Method in brief: as §1

[5] = tested on: blackgrass (Alopecurus myosuroides); assay: Test A postemergence, blackgrass; conditions: Alopecurus myosuroides, post-emergence, 240 h, Postemergence, 0 to 100 scale, 10 days, read-out: Plant response rating, Blackgrass; for pest or weed control at 31 g/ha: 31 g ai/ha; for pest or weed control at 125 g/ha: 125 g ai/ha
Method in brief: as §1

corn (Zea mays) = assay: Test A postemergence, corn; conditions: Zea mays, post-emergence, 240 h, Postemergence, 0 to 100 scale, 10 days; for Corn plant response rating (crop injury, 0 = no effect, 100 = complete kill) at 31 g/ha: 31 g ai/ha; for Corn plant response rating (crop injury, 0 = no effect, 100 = complete kill) at 125 g/ha: 125 g ai/ha
Method in brief: as §1

kochia (Bassia scoparia) = assay: Test A postemergence, kochia; conditions: Bassia scoparia, post-emergence, 240 h, 10 days, read-out: Plant response rating, Kochia; for pest or weed control at 31 g/ha: 31 g ai/ha, postemergence, 0 to 100 scale (0 no effect, 100 complete control); for pest or weed control at 125 g/ha: Postemergence, 125 g ai/ha, 0 to 100 scale
Method in brief: as §1

[6] = tested on: redroot pigweed (Amaranthus retroflexus); assay: Test A postemergence, redroot pigweed; conditions: 10 days
Method in brief: as §1

[7] = tested on: ragweed (common ragweed, Ambrosia artemisiifolia); assay: Test A postemergence, ragweed; conditions: Ambrosia artemisiifolia, post-emergence, 240 h, 10 days, read-out: Plant response rating, Ragweed; for pest or weed control at 31 g/ha: 31 g ai/ha, postemergence, 0 to 100 scale (0 no effect, 100 complete control); for pest or weed control at 125 g/ha: Postemergence, 125 g ai/ha, 0 to 100 scale
Method in brief: as §1

[8] = tested on: ryegrass, Italian (Italian ryegrass, Lolium multiflorum); assay: Test A postemergence, ryegrass, Italian; conditions: Lolium multiflorum, post-emergence, 240 h, 10 days, read-out: Plant response rating, Ryegrass, Italian; for pest or weed control at 31 g/ha: 31 g ai/ha, postemergence, 0 to 100 scale (0 no effect, 100 complete control); for pest or weed control at 125 g/ha: Postemergence, 125 g ai/ha, 0 to 100 scale
Method in brief: as §1

[9] = tested on: wheat (Triticum aestivum); assay: Test A postemergence, wheat; conditions: Triticum aestivum, post-emergence, 240 h, 10 days, read-out: Plant response rating, Wheat; for plant injury at 31 g/ha: 31 g ai/ha, postemergence, 0 to 100 scale (0 no effect, 100 complete control); for plant injury at 125 g/ha: Postemergence, 125 g ai/ha, 0 to 100 scale
Method in brief: as §1

[10] = tested on: galium (catchweed bedstraw, Galium aparine); assay: Test A postemergence, galium; conditions: Galium, post-emergence, 240 h, 10 days, read-out: Plant response rating, Galium; for pest or weed control at 31 g/ha: 31 g ai/ha, postemergence, 0 to 100 scale (0 no effect, 100 complete control); for pest or weed control at 125 g/ha: Postemergence, 125 g ai/ha, 0 to 100 scale
Method in brief: as §1

[11] = tested on: barnyardgrass (Echinochloa crus-galli); assay: Test B flooded paddy test, barnyardgrass; conditions: Echinochloa crus-galli; 250 g ai/ha, Flood; visually evaluated after 10 to 14 days; read-out: Plant response rating, Barnyardgrass (0 to 100 scale where 0 is no effect and 100 is complete control)
Method in brief: (§2)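 Water-applied treatment of 2-leaf plants in pots kept flooded at 3 cm. Visual control rating (0–100) against untreated plants after 10–14 greenhouse days.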

[12] = tested on: ducksalad (Heteranthera limosa); assay: Test B flooded paddy test, ducksalad; conditions: Heteranthera limosa; 250 g ai/ha, Flood; visually evaluated after 10 to 14 days; read-out: Plant response rating, Ducksalad (0 to 100 scale where 0 is no effect and 100 is complete control)
Method in brief: as §2

rice (Oryza sativa) = assay: Test B flooded paddy test, rice; conditions: Oryza sativa; 250 g ai/ha, Flood; visually evaluated after 10 to 14 days; read-out: Plant response rating, Rice (0 to 100 scale where 0 is no effect and 100 is complete control)
Method in brief: as §2

[13] = tested on: sedge, umbrella (small-flower umbrella sedge, Cyperus difformis); assay: Test B flooded paddy test, sedge, umbrella; conditions: Cyperus difformis; 250 g ai/ha, Flood; visually evaluated after 10 to 14 days; read-out: Plant response rating, Sedge, Umbrella (0 to 100 scale where 0 is no effect and 100 is complete control)
Method in brief: as §2

[14] = 125 g ai/ha, 0 to 100 scale (0 no effect, 100 complete control)
[15] = 31 g ai/ha, postemergence, 0 to 100 scale (0 no effect, 100 complete control)
[16] = Postemergence, 125 g ai/ha, 0 to 100 scale

SMILES | Plant response rating, Barnyardgrass ([1]; 31 g ai/ha, 0 to 100 scale) | Plant response rating, Barnyardgrass [1, 14] | pest or weed control at 31 g/ha [2] [%] | pest or weed control at 125 g/ha [2] [%] | pest or weed control at 31 g/ha [3] [%] | pest or weed control at 125 g/ha [3] [%] | Plant response rating, Barnyardgrass ([4]; 31 g ai/ha) | Plant response rating, Barnyardgrass ([4]; 125 g ai/ha) | pest or weed control at 31 g/ha [5] [%] | pest or weed control at 125 g/ha [5] [%] | Corn plant response rating (crop injury, 0 = no effect, 100 = complete kill) at 31 g/ha (corn (Zea mays)) [%] | Corn plant response rating (crop injury, 0 = no effect, 100 = complete kill) at 125 g/ha (corn (Zea mays)) [%] | pest or weed control at 31 g/ha (kochia (Bassia scoparia)) [%] | pest or weed control at 125 g/ha (kochia (Bassia scoparia)) [%] | Plant response rating, Pigweed, Redroot [6, 15] | Plant response rating, Pigweed, Redroot [6, 16] | pest or weed control at 31 g/ha [7] [%] | pest or weed control at 125 g/ha [7] [%] | pest or weed control at 31 g/ha [8] [%] | pest or weed control at 125 g/ha [8] [%] | also measured
CC(=O)OCOc1c(Cl)nn(C)c(=O)c1-c1c(C)sc2cccc(Cl)c12 [Compound 1, 5-[(acetyloxy)methoxy]-6-chloro-4-(4-chloro-2-methylbenzo[b]thien-3-yl)-2-methyl-3(2H)-pyridazinone] | 0 | 0 | 10 | 20 | 0 | 10 | 0 | 40 | 0 | 0 | 0 | 0 | 10 | 50 | 80 | 90 | 70 | 90 | 10 | 30 | plant injury at 31 g/ha [9]: 0%; plant injury at 125 g/ha [9]: 0%; pest or weed control at 31 g/ha [10]: 70%; pest or weed control at 125 g/ha [10]: 90%; pest or weed control at 250 g/ha [11]: 0%; pest or weed control at 250 g/ha [12]: 0%; plant injury at 250 g/ha (rice (Oryza sativa)): 10%; pest or weed control at 250 g/ha [13]: 0%
CC(=O)OCOc1c(Cl)nn(C)c(=O)c1-c1c2ccccc2cc2ccccc12 [Compound 10, 5-[(acetyloxy)methoxy]-4-(9-anthracenyl)-6-chloro-2-methyl-3(2H)-pyridazinone] | 0 | 0 | 40 | 40 | 0 | 10 | 20 | 10 | 30 | 0 | 10 | 20 | 0 | 10 | 100 | 100 | 100 | 100 | 0 | 0 | plant injury at 31 g/ha [9]: 0%; plant injury at 125 g/ha [9]: 0%; pest or weed control at 31 g/ha [10]: 90%; pest or weed control at 125 g/ha [10]: 100%; pest or weed control at 250 g/ha [11]: 15%; pest or weed control at 250 g/ha [12]: 95%; plant injury at 250 g/ha (rice (Oryza sativa)): 0%; pest or weed control at 250 g/ha [13]: 95%
